Reference: patent US11208446B2, “Agents and methods for treating CBP-dependent cancers” (priority 2016, dated 2021)

Legend:
MYB:CBP complex = molecular target: T1, MYB:CBP complex (Homo sapiens, UniProt Q92793); test: Dissociation of MYB:CBP complex in AML cells (co-immunoprecipitation); format: cell-based
T1 construct: endogenous in cells; host or cells: MV411 human AML cells
Experimental: Co-immunoprecipitation analysis. 7.5 μg of indicated antibodies were conjugated to 1 mg M-270 Epoxy-coated magnetic beads (Invitrogen) according to manufacturer's instructions. 1×10^7 MV411 cells were collected and washed in cold PBS. Washed cell pellets were resuspended in 350 μL cold lysis buffer (50 mM Tris-HCl pH 7.4, 150 mM NaCl, 1 mM EDTA, 1 mM DTT, 0.5% Triton X-100, supplemented with protease inhibitors described above) and incubated on ice for 10 min. Cells were mechanically disrupted using the Covaris […] adaptive focused sonicator at 50 W peak power, 10% duty cycle, 200 cycles per burst at 4° C. for 300 sec. Lysate was clarified by centrifugation for 15 min at 18,000×g at 4° C. Supernatant (cleared lysate) was diluted in 1.05 mL dilution buffer (50 mM Tris-HCl, 150 mM NaCl, 1 mM EDTA, 1 mM DTT, 10% glycerol, supplemented with protease inhibitors described above for a total volume of 1.4 mL. Diluted lysate was added to 1 mg beads, and immunoprecipitation proceeded for 3 h at 4° C. with rotation. Beads were then washed with lysis buffer twice. Proteins were eluted in 20 μL EB buffer (Invitrogen) for 5 min at room temperature, and eluate was neutralized with 2 μL 1M Tris pH 11. Samples were prepared for Western blot by addition of Laemmli buffer with 50 mM DTT and incubation at 95° C. for 5 min. Presence of MYB and CBP was identified by Western blot as described above.

[1] = tested on: H3K27Ac-driven oncogenic enhancers; test: ChIP-seq of H3K27Ac enhancers in AML cells; format: cell-based, human
Experimental: Chromatin immunoprecipitation and sequencing (ChIP-seq). Briefly, cells were fixed in 1% formalin in phosphate-buffered saline (PBS) for 10 minutes at room temperature. Glycine (125 mM final concentration) and Tris-HCl pH 8 (100 mM final concentration) was added to the cells and cells were washed twice in ice-cold PBS and resuspended in sodium dodecyl sulfate (SDS) lysis buffer (1% SDS, 10 mM EDTA, 50 mM Tris-HCl, pH 8.1). Lysates were sonicated using the Covaris […] adaptive focused sonicator to obtain 100-500 bp chromatin fragments (Covaris, Woburn, Calif.). Lysates containing sheared chromatin fragments were resuspended in 0.01% SDS, 1.1% Triton-X100, 1.2 mM EDTA, 16.7 mM Tris-HCl, pH 8.1, 167 mM NaCl. Lysates and antibody-coupled beads were incubated over night at 4° C. Precipitates were washed sequentially with Mixed Micelle Wash Buffer (15 ml 5M NaCl-150 mM Final, 10 ml 1M Tris-Cl pH 8.1, 5 ml 0.5M EDTA, pH 8.0, 40 ml 65% w/v sucrose, 1 ml 10% NaN3, 25 ml 20% Triton X-100, 10 ml 10% SDS, Add dH2O to 500 ml), LiCl washing solution (0.5% deoxycholic acid, 1 mM EDTA, 250 mM LiCl, 0.5% NP-40, 10 mM Tris-Cl pH 8.0, 0.2% NaN3) and then TBS buffer (20 mM Tris-Cl pH 7.4, 150 mM NaCl). Elution performed in elution buffer (1% SDS, 0.1 M NaHCO3). […] Libraries were sequenced on the Illumina HiSeq 2500 instruments, with 30 million 2×50 bp paired reads.

T1 sequence (Q92793 2-2442 limits assumed, one chain of several): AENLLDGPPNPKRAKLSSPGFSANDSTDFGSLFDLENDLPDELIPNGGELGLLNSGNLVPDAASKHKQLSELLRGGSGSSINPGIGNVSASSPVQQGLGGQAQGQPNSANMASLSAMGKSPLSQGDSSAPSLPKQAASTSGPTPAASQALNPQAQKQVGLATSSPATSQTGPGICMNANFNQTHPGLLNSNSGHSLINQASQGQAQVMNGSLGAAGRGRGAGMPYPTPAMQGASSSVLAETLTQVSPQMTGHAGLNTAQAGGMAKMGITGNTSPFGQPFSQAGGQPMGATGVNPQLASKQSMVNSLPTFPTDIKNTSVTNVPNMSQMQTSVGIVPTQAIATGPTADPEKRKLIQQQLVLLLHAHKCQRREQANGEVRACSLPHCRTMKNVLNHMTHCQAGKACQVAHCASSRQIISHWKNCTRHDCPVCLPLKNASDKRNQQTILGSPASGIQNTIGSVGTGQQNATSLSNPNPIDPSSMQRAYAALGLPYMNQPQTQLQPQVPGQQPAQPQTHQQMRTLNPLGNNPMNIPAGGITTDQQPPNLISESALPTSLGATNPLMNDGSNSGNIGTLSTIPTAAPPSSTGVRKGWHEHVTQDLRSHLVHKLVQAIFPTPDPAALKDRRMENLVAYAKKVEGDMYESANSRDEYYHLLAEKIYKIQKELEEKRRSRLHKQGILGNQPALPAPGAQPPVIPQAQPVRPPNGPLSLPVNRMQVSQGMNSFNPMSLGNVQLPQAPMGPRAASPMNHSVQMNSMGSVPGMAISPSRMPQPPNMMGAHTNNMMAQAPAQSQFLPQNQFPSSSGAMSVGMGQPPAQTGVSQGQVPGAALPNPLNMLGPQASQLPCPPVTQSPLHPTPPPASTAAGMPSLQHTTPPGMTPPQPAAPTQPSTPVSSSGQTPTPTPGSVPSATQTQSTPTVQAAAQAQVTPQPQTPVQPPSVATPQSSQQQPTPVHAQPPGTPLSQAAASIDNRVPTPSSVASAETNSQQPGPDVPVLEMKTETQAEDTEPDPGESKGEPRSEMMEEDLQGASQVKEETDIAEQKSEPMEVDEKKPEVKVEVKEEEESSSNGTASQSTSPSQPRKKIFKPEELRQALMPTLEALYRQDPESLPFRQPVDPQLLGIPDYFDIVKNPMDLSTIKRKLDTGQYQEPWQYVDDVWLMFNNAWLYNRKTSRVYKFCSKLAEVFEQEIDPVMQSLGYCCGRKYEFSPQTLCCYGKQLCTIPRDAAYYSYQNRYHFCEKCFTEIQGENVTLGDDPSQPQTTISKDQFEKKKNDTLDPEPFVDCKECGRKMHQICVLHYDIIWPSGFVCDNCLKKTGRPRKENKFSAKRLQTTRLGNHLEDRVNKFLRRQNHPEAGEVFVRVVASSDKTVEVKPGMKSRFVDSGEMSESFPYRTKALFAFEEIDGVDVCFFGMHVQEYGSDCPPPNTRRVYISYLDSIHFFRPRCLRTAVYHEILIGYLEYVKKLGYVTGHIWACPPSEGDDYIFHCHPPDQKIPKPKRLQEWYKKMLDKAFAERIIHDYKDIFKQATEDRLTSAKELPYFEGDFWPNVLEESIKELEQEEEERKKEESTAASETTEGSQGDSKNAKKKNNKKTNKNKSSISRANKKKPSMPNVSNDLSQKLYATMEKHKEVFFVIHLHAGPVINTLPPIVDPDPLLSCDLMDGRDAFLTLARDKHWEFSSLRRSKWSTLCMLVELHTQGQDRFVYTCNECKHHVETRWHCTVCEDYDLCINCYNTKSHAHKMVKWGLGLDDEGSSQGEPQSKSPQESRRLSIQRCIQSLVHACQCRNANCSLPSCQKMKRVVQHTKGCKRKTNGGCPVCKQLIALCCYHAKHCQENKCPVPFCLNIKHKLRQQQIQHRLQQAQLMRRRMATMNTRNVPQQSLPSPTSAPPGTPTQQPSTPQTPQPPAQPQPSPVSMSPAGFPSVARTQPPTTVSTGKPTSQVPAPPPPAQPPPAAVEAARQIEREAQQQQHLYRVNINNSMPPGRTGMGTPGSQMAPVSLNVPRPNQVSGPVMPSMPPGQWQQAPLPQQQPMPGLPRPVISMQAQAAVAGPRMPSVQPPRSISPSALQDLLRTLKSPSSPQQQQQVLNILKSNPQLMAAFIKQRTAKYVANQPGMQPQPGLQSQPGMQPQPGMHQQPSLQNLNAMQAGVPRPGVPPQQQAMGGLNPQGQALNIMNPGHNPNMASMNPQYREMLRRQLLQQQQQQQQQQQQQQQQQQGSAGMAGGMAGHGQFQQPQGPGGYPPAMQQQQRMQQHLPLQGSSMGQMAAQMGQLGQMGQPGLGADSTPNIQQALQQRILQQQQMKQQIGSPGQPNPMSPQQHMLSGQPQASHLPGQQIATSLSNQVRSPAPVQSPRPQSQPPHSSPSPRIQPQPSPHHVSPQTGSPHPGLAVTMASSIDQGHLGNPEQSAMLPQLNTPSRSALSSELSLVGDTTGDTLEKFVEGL

SMILES: CC[C@@H](C)[C@@H](NC(=O)[C@@H](CCCCN)NC(=O)[C@@H](CCC(=O)O)NC(=O)[C@@H](CC(C)C)NC(=O)[C@@H](CCC(=O)O)NC(=O)[C@@H](CC(C)C)NC(=O)[C@@H](CC(C)C)NC(=O)[C@@H](CC(C)C)NC(=O)[C@@H](CCSC)NC(=O)[C@@H](CO)NC(=O)[C@H](NC(=O)[C@@H](CCC(=O)O)NC(=O)[C@@H](CC(N)=O)NC(=O)[C@@H](CCC(=O)O)NC(=O)[C@@H](CC(C)C)NC(=O)[C@@H](CCCCN)NC(C)=O)[C@H](C)O)C(=O)N[C@H](CCCNC(=N)N)C(=O)N[C@H](CCCCN)C(=O)NCC(=O)NCC(=O)N[C@H](CCCNC(=N)N)C(=O)N[C@H](CCCNC(=N)N)C(=O)N[C@H](CCCNC(=N)N)C(=O)N[C@H](CCC(N)=O)C(=O)N[C@H](CCCNC(=N)N)C(=O)N[C@H](CCCNC(=N)N)C(=O)N[C@H](CCCCN)C(=O)N[C@H](CCCCN)C(=O)N[C@H](CCCNC(=N)N)C(=O)NCC(=O)N[C@H](Cc1ccc(O)cc1)C(N)=O [MYBMIM]
- MYB:CBP complex in cells (MYB:CBP complex): displacement and dissociation of MYB:CBP complex
- H3K27Ac-driven oncogenic enhancers [1]: obliteration
